Results reported in patent EP4620312A1, “ENDOTHELIN-1 SECRETION INHIBITOR” (Mitsui DM Sugar Co., Ltd., priority 2022, dated 2024).

System: endothelin-1
Assay: Endothelin-1 concentration in blood (ELISA) before and after a 75-g OGTT during 12-week daily jelly ingestion
Assay type: in vivo, human
Conditions: for endothelin-1 concentration at 60 minutes and 120 minutes after the 75-g OGTT compared to before the 75-g OGTT: healthy middle to elderly persons
Procedure: Subjects were 54 healthy middle to elderly persons (30 males and 24 females). All subjects were assigned to one of the groups, i.e., an isomaltulose ingestion group (Group I) and a sucrose ingestion group (Group S), in a single blind test before intervention, and the intervention was performed for 12 weeks each.
All subjects ingested jellies having compositions described in Table 1 once a day for 12 weeks continuously. Group I received a jelly containing isomaltulose (Example 1), and group S received a jelly containing sucrose (Comparative Example 1). The jelly was taken every morning before breakfast, and all subjects were instructed not to change their dietary habits during the intervention period from those before the intervention. A 75 g oral glucose tolerance test (75-g OGTT, described in detail below) was performed before the 12-week intervention and at 4 weeks, 8 weeks, and 12 weeks after the start of the intervention, after the lapse of 1 day or more from the ingestion of the jelly and the secretion amount of endothelin-1 was evaluated by the method described below before the 75-g OGTT and at 60 minutes and 120 minutes after the 75-g OGTT.
The 75-g OGTT was performed under the instruction of a doctor using TRELAN- G 75 g (Yoshindo Inc.), which is generally used in medical institutions and research, and the test solution was orally ingested in a general volume (225 mL per dose) within 5 minutes according to the guidelines of the Japan Diabetes Society (Araki E, Goto A, Kondo T, Noda M, Noto H, Origasa H, et al. Japanese Clinical Practice Guideline for Diabetes 2019. J Diabetes Investig 2020; 11: 1020-1076.).
For all subjects, blood was collected from the cubital vein in a fasting state for 12 hours or more in a hygienic environment. Before ingestion of a carbohydrate solution for the 75-g OGTT and at 60 minutes and 120 minutes after the ingestion, a nurse collected blood (15 to 20 mL per collection) using a sterilized disposable blood collection needle under the instruction of a doctor. A sample after blood collection was immediately centrifuged at 4°C and 3000 rpm for 15 minutes, and the concentration of endothelin-1 was measured by ELISA (enzyme-linked immunosorbent assay) using a test kit (Cayman Chemical, Ann Arbor) for measuring the concentration of endothelin-1.
A change in endothelin-1 concentration before and after the start of the intervention of each group was shown as the average value (95% confidence interval). For the comparison of the change in endothelin-1 concentration between the 2 groups before and after the 75-g OGTT, a two-way repeated measures ANOVA was used. The Bonferroni method was performed for comparison of changes in each intervention in post-hoc test. The total area under the curve at 90 minutes (endothelin-1 concentration AUC) was calculated using the trapezoidal rule. For statistical analysis, IBM SPSS Statistics Ver. 25 (manufactured by IBM Corporation) was used. The statistical significance level in this test was set at 5%.

[1] = jelly with 25 g once a day, oral, at 4, 8, and 12 weeks after the start of the intervention

Compound: OC[C@H]1O[C@@](CO)(O[C@H]2O[C@H](CO)[C@@H](O)[C@H](O)[C@H]2O)[C@@H](O)[C@@H]1O [sucrose, reference compound]
- endothelin-1 concentration at 60 minutes and 120 minutes after the 75-g OGTT compared to before the 75-g OGTT [1]: significantly increased

Compound: 6-O-α-D-glucopyranosyl-D-fructose [isomaltulose]
- secretion of endothelin-1 (overall conclusion) (after 75-g OGTT at 4, 8, and 12 weeks after the start of the intervention, Group I versus Group S): inhibited the secretion of endothelin-1
- endothelin-1 concentration at 60 minutes and 120 minutes after the 75-g OGTT compared to before the 75-g OGTT [1]: no significant change
- endothelin-1 concentration before the 75-g OGTT and at 60 minutes and 120 minutes after the 75-g OGTT, Group I versus Group S (jelly with 25 g once a day, oral, at 4, 8, and 12 weeks after the start of the intervention, p < 0.01): significantly lower value
- endothelin-1 concentration AUC, Group I versus Group S (jelly with 25 g once a day, oral, at 4, 8, and 12 weeks after the start of the intervention, trapezoidal rule, p < 0.01): significantly lower value
